Ki data for 10 compounds are collected here from ChEMBL document CHEMBL1221293, “New effective inhibitors of the Abelson kinase” (Bioorg Med Chem, 2010).

The target in this assay is Tyrosine-protein kinase ABL1 (Homo sapiens, UniProt P00519).
Sequence of Tyrosine-protein kinase ABL1 (P00519 whole entry): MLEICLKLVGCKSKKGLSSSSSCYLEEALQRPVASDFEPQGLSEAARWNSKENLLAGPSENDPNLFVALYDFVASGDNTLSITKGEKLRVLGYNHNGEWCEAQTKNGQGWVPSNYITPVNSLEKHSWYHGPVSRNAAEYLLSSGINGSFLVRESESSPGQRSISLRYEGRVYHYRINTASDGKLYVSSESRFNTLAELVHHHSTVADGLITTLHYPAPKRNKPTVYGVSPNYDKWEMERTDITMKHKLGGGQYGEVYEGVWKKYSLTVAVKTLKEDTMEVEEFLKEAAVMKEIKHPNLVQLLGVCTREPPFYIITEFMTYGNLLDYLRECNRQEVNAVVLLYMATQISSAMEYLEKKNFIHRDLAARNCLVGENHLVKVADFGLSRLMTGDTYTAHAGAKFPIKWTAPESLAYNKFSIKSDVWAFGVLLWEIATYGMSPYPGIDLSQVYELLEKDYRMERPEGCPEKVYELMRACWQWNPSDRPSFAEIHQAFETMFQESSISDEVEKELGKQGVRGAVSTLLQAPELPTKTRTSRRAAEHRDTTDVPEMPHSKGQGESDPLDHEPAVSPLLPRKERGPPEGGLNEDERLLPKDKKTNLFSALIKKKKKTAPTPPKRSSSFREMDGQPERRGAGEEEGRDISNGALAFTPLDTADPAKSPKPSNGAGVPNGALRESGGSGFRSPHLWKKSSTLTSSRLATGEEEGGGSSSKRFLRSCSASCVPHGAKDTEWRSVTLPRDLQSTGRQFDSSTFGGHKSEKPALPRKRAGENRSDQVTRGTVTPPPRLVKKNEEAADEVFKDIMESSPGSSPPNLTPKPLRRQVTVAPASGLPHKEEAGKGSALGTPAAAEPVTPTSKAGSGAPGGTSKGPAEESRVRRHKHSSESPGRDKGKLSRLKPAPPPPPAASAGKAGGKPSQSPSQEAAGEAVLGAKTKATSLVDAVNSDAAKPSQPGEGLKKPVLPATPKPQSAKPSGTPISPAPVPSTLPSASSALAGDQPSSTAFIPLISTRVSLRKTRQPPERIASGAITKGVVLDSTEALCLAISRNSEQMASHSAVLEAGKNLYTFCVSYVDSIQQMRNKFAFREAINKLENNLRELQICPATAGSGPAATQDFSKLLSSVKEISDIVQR
Description: Inhibition of recombinant c-Abl after 30 mins
Turning to `Cn1c(=O)c(-c2c(Cl)cccc2Cl)cc2cnc(Nc3cccc(NC(=O)CN)c3)nc21`, the affinity corresponds to a Ki of 0.02 nM.

Take `Cn1c(=O)c(-c2c(Cl)cccc2Cl)cc2cnc(NCc3cccc(N)c3)nc21`: the affinity, expressed as Ki, was 8 nM.

As to `Cn1c(=O)c(-c2ccccc2Cl)cc2cnc(NCc3cccc(N)c3)nc21`, the Ki was determined as 60 nM.

`Cn1c(=O)c(-c2ccccc2)cc2cnc(NCc3cccc(N)c3)nc21` registered an inhibition constant Ki of 2000 nM.

`Cn1c(=O)c(-c2c(F)cccc2F)cc2cnc(NCc3cccc(N)c3)nc21` registered an inhibition constant Ki of 40 nM.

Consider `Cn1c(=O)c(-c2ccccc2Br)cc2cnc(NCc3cccc(N)c3)nc21`, for which the Ki stood at 40 nM.

The compound `CSc1cccc(CNc2ncc3cc(-c4c(Cl)cccc4Cl)c(=O)n(C)c3n2)c1` gave a Ki of 70 nM.

In the case of `CCCCCCNc1cccc(CNc2ncc3cc(-c4c(Cl)cccc4Cl)c(=O)n(C)c3n2)c1`, the Ki is 900 nM.

With `Cn1c(=O)c(-c2c(Cl)cccc2Cl)cc2cnc(NCc3cccc(NC(=O)CN)c3)nc21`, the Ki was found to be 20 nM. Against the preceding compound, the Ki is about 45-fold lower.

Regarding `Cn1c(=O)c(-c2c(Cl)cccc2Cl)cc2cnc(NCc3cccc(C(=O)CCCC[C@@H]4SC[C@@H]5NC(=O)N[C@@H]54)c3)nc21`, affinity was put at a Ki of 20 nM.
